{"source": "patent US20260014171A1", "about": "“COMPOSITION FOR THE USE IN THE TREATMENT OF POLYCYSTIC OVARY SYNDROME” (LO.LI. PHARMA S.R.L., priority 2023, published 2026)", "format_in_all_cases": "cell-based", "key": {"IGFBP-1 [1]": {"system": "IGFBP-1", "assay": "IGFBP-1 protein quantification by western blot in co-cultured bovine theca and granulosa cells", "conditions": "Phase 1: FSH (46 h), LH + insulin, then exogenous IGF-1 100 ng/ml 48 h; vs untreated control", "procedure": "(§1) The anti-proliferative activity of Dioscorea villosa, Vitamin D, and α-lactalbumin was investigated (alone or in combination) in cultured bovine theca and granulosa cells (co-culture). To investigate the properties of these natural molecules, the inventors evaluated their effect on cell viability, proliferation, and apoptosis.\n(§2) Bovine theca and granulosa were co-cultured, (DMEM, High glucose 5% FBS, […], 1% Pen/Strep, 1% Amphotericin B, 1% Glutamine) for 7 days. The cells were grown in petri dishes and treated shortly before reaching 80% confluence. […]\n(§3) The expression of insuline like growth factor IGF-1 and IGF-BP1 insulin like growth factor binding protein 1 were both measured by Real Time PCR and western blot, to investigate the effects of the treatment with the raw materials; namely, Dioscorea villosa, Vitamin D and α-lactalbumin alone or in combination.\n(§4) The results were measured as 2^−ΔΔCt for the mRNA assay. Both for the Real Time PCR and western blot analyses, the data are expressed as fold increases in relation to the housekeeping genes. Proliferation (ki67 western blot assay) and apoptosis (caspase-9 western blot assay) assessed the expression as per the experimental conditions reported above.\n(§5) Co-cultured bovine theca and granulosa cells; grown as described in phase 1. The expression of IGF-1 and IGF-BP1 were analyzed after treatment with Dioscorea villosa. […]"}, "ki-67 [2]": {"system": "ki-67", "assay": "ki-67 gene expression (mRNA) in co-cultured bovine theca and granulosa cells", "conditions": "Phase 1: FSH (46 h), LH + insulin, then exogenous IGF-1 100 ng/ml 48 h; vs untreated control", "procedure": "as §1, §2, §4, §5\n(§6) The results were measured as […] for the mRNA assay. Both for the Real Time PCR and western blot analyses, the data are expressed as fold increases in relation to the housekeeping genes. […]\n(§7) The results were measured as […] for the mRNA assay. […]"}, "caspase-9 [3]": {"system": "caspase-9", "assay": "Apoptosis (caspase-9 western blot assay) in co-cultured bovine theca and granulosa cells", "procedure": "as §1, §2, §4, §5, §6, §7"}, "IGF-1 [4]": {"system": "IGF-1", "assay": "IGF-1 gene expression by Real Time PCR in co-cultured bovine theca and granulosa cells", "conditions": "Phase 1: FSH (46 h), LH 1.5 UI/ml + insulin 100 ng/ml 10 min, then exogenous IGF-1 100 ng/ml 48 h; vs untreated control", "procedure": "as §1, §2, §3, §4, §5"}, "ki-67 [5]": {"system": "ki-67", "assay": "Proliferation (ki67 western blot assay) in co-cultured bovine theca and granulosa cells", "procedure": "as §1, §2, §4, §5, §6, §7"}, "IGF-1 [6]": {"system": "IGF-1", "assay": "IGF-1 protein quantification by western blot in co-cultured bovine theca and granulosa cells", "conditions": "Phase 1: FSH (46 h), LH + insulin, then exogenous IGF-1 100 ng/ml 48 h; vs untreated control", "procedure": "as §1, §2, §3, §4, §5"}, "IGFBP-1 [7]": {"system": "IGFBP-1", "assay": "IGFBP-1 gene expression by Real Time PCR in co-cultured bovine theca and granulosa cells", "conditions": "Phase 1: FSH (46 h), LH + insulin, then exogenous IGF-1 100 ng/ml 48 h; vs untreated control", "procedure": "as §1, §2, §3, §4, §5"}, "caspase-9 [8]": {"system": "caspase-9", "assay": "caspase-9 gene expression (mRNA) in co-cultured bovine theca and granulosa cells", "conditions": "Phase 1: FSH (46 h), LH + insulin, then exogenous IGF-1 100 ng/ml 48 h; vs untreated control", "procedure": "as §1, §2, §4, §5, §6, §7"}, "[9]": {"conditions": "Phase 1: FSH (46 h), LH + insulin, then exogenous IGF-1 100 ng/ml 48 h, vs untreated control"}, "[10]": {"conditions": "Results text: treatment with IGF-1 (48 h)"}}}
{"substance": "IGF-1: exogenous insulin like growth factor IGF-1, 100 ng/ml for 48 h, used as proliferative stimulus", "values": [{"measurement": "quantification of IGFBP-1 protein", "setting": "IGFBP-1 [1]", "result": "not significant"}, {"measurement": "gene expression of ki-67 (mRNA)", "setting": "ki-67 [2]", "result": "significant increase"}, {"measurement": "quantification of caspase-9 protein", "setting": "caspase-9 [3]; [9]", "result": "not significant"}, {"measurement": "rate of apoptosis observed in the cell culture", "setting": "caspase-9 [3]; [10]", "result": "reduction in the rate of apoptosis"}, {"measurement": "gene expression of IGF-1 (mRNA)", "setting": "IGF-1 [4]", "result": "significant increase"}, {"measurement": "quantification of ki-67 protein", "setting": "ki-67 [5]; [9]", "result": "significant increase"}, {"measurement": "proliferative effect", "setting": "ki-67 [5]; [10]", "result": "strong proliferative effect"}, {"measurement": "quantification of IGF-1 protein", "setting": "IGF-1 [6]", "result": "significant increase"}, {"measurement": "gene expression of IGFBP-1 (mRNA)", "setting": "IGFBP-1 [7]", "result": "not significant"}, {"measurement": "gene expression of caspase-9 (mRNA)", "setting": "caspase-9 [8]", "result": "not significant"}]}
